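All cell lines were grown in 96-well plates and treated with compound for 48 hours. GI50 is the concentration that inhibits growth by half. TGI denotes the concentration required for complete inhibition of growth.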
Tests used:
Test in all cases: DTP human tumour cell line panel, 48 h
786-0 renal = test system: 786-0 renal
A498 renal = test system: A498 renal
A549 NSCLC = test system: A549 NSCLC
ACHN renal = test system: ACHN renal
BT-549 breast = test system: BT-549 breast
CAKI-1 renal = test system: CAKI-1 renal
CCRF-CEM leukemia = test system: CCRF-CEM leukemia
COLO 205 colon = test system: COLO 205 colon
DU-145 prostate = test system: DU-145 prostate
EKVX NSCLC = test system: EKVX NSCLC
HCC-2998 colon = test system: HCC-2998 colon
HCT-116 colon = test system: HCT-116 colon
HCT-15 colon = test system: HCT-15 colon
HL-60(TB) leukemia = test system: HL-60(TB) leukemia
HOP-62 NSCLC = test system: HOP-62 NSCLC
HOP-92 NSCLC = test system: HOP-92 NSCLC
HS 578T breast = test system: HS 578T breast
HT29 colon = test system: HT29 colon
IGROV1 ovarian = test system: IGROV1 ovarian
K-562 leukemia = test system: K-562 leukemia
KM12 colon = test system: KM12 colon
LOX IMVI melanoma = test system: LOX IMVI melanoma
MALME-3M melanoma = test system: MALME-3M melanoma
MCF7 breast = test system: MCF7 breast
MDA-MB-231 breast = test system: MDA-MB-231 breast
MDA-MB-435 = test system: MDA-MB-435
MOLT-4 leukemia = test system: MOLT-4 leukemia
NCI-H226 lung = test system: NCI-H226 lung
NCI-H23 lung = test system: NCI-H23 lung
NCI-H460 lung = test system: NCI-H460 lung
NCI-H522 lung = test system: NCI-H522 lung
NCI/ADR-RES ovarian = test system: NCI/ADR-RES ovarian
OVCAR-3 ovarian = test system: OVCAR-3 ovarian
OVCAR-4 ovarian = test system: OVCAR-4 ovarian
OVCAR-5 ovarian = test system: OVCAR-5 ovarian
OVCAR-8 ovarian = test system: OVCAR-8 ovarian
PC-3 prostate = test system: PC-3 prostate
RPMI-8226 leukemia = test system: RPMI-8226 leukemia
RXF 393 renal = test system: RXF 393 renal
SF-268 CNS = test system: SF-268 CNS
SF-295 CNS = test system: SF-295 CNS
SF-539 CNS = test system: SF-539 CNS
SK-MEL-2 melanoma = test system: SK-MEL-2 melanoma
SK-MEL-28 melanoma = test system: SK-MEL-28 melanoma
SK-MEL-5 melanoma = test system: SK-MEL-5 melanoma
SK-OV-3 ovarian = test system: SK-OV-3 ovarian
SN12C renal = test system: SN12C renal
SNB-19 CNS = test system: SNB-19 CNS
SNB-75 CNS = test system: SNB-75 CNS
SR leukemia = test system: SR leukemia
SW-620 colon = test system: SW-620 colon
T-47D breast = test system: T-47D breast
TK-10 renal = test system: TK-10 renal
U251 CNS = test system: U251 CNS
UACC-257 melanoma = test system: UACC-257 melanoma
UACC-62 melanoma = test system: UACC-62 melanoma
UO-31 renal = test system: UO-31 renal

SMILES: O=C(/C=C/c1cccnc1)c1ccccc1
- GI50 (786-0 renal): 7.9 µM
- TGI (786-0 renal): 21.4 µM
- GI50 (A498 renal): 11.7 µM
- TGI (A498 renal): 23.9 µM
- GI50 (A549 NSCLC): 17.2 µM
- TGI (A549 NSCLC): 34.2 µM
- GI50 (ACHN renal): 4.51 µM
- TGI (ACHN renal): 17.1 µM
- GI50 (BT-549 breast): 16 µM
- TGI (BT-549 breast): 29.9 µM
- GI50 (CAKI-1 renal): 7.21 µM
- TGI (CAKI-1 renal): 20.6 µM
- GI50 (CCRF-CEM leukemia): 3.2 µM
- TGI (CCRF-CEM leukemia): 9.91 µM
- GI50 (COLO 205 colon): 13.9 µM
- TGI (COLO 205 colon): 28.8 µM
- GI50 (DU-145 prostate): 13.9 µM
- TGI (DU-145 prostate): 26.9 µM
- GI50 (EKVX NSCLC): 14.1 µM
- TGI (EKVX NSCLC): 27.7 µM
- GI50 (HCC-2998 colon): 14.9 µM
- TGI (HCC-2998 colon): 29.1 µM
- GI50 (HCT-116 colon): 2.14 µM
- TGI (HCT-116 colon): 5.83 µM
- GI50 (HCT-15 colon): 4.1 µM
- TGI (HCT-15 colon): 20.2 µM
- GI50 (HL-60(TB) leukemia): 7.02 µM
- TGI (HL-60(TB) leukemia): 28.8 µM
- GI50 (HOP-62 NSCLC): 13.7 µM
- TGI (HOP-62 NSCLC): 26.8 µM
- GI50 (HOP-92 NSCLC): 4.62 µM
- TGI (HOP-92 NSCLC): 19.2 µM
- GI50 (HS 578T breast): 10.5 µM
- TGI (HS 578T breast): 32.7 µM
- GI50 (HT29 colon): 2.31 µM
- TGI (HT29 colon): 5.92 µM
- GI50 (IGROV1 ovarian): 4.97 µM
- TGI (IGROV1 ovarian): 25.6 µM
- GI50 (K-562 leukemia): 2.85 µM
- TGI (K-562 leukemia): 8.53 µM
- GI50 (KM12 colon): 2.33 µM
- TGI (KM12 colon): 6.87 µM
- GI50 (LOX IMVI melanoma): 1.86 µM
- TGI (LOX IMVI melanoma): 3.62 µM
- GI50 (MALME-3M melanoma): 15.7 µM
- TGI (MALME-3M melanoma): 35.9 µM
- GI50 (MCF7 breast): 2.92 µM
- TGI (MCF7 breast): 12.4 µM
- GI50 (MDA-MB-231 breast): 12.9 µM
- TGI (MDA-MB-231 breast): 28.3 µM
- GI50 (MDA-MB-435): 12.4 µM
- TGI (MDA-MB-435): 26.7 µM
- GI50 (MOLT-4 leukemia): 4.32 µM
- TGI (MOLT-4 leukemia): 20.2 µM
- GI50 (NCI-H226 lung): 14.6 µM
- TGI (NCI-H226 lung): 28.1 µM
- GI50 (NCI-H23 lung): 17.3 µM
- TGI (NCI-H23 lung): 39.5 µM
- GI50 (NCI-H460 lung): 7.07 µM
- TGI (NCI-H460 lung): 21.2 µM
- GI50 (NCI-H522 lung): 1.67 µM
- TGI (NCI-H522 lung): 4.65 µM
- GI50 (NCI/ADR-RES ovarian): 14.3 µM
- TGI (NCI/ADR-RES ovarian): 36 µM
- GI50 (OVCAR-3 ovarian): 4.25 µM
- TGI (OVCAR-3 ovarian): 15.7 µM
- GI50 (OVCAR-4 ovarian): 13 µM
- TGI (OVCAR-4 ovarian): 26.5 µM
- GI50 (OVCAR-5 ovarian): 14.7 µM
- TGI (OVCAR-5 ovarian): 33.3 µM
- GI50 (OVCAR-8 ovarian): 12.2 µM
- TGI (OVCAR-8 ovarian): 25.9 µM
- GI50 (PC-3 prostate): 11 µM
- TGI (PC-3 prostate): 26.5 µM
- GI50 (RPMI-8226 leukemia): 2.46 µM
- TGI (RPMI-8226 leukemia): 6.24 µM
- GI50 (RXF 393 renal): 10.9 µM
- TGI (RXF 393 renal): 23.2 µM
- GI50 (SF-268 CNS): 14.4 µM
- TGI (SF-268 CNS): 30 µM
- GI50 (SF-295 CNS): 14.3 µM
- TGI (SF-295 CNS): 29.3 µM
- GI50 (SF-539 CNS): 13.3 µM
- TGI (SF-539 CNS): 28.6 µM
- GI50 (SK-MEL-2 melanoma): 13.5 µM
- TGI (SK-MEL-2 melanoma): 27 µM
- GI50 (SK-MEL-28 melanoma): 13.1 µM
- TGI (SK-MEL-28 melanoma): 25.8 µM
- GI50 (SK-MEL-5 melanoma): 14.3 µM
- TGI (SK-MEL-5 melanoma): 27.5 µM
- GI50 (SK-OV-3 ovarian): 14.6 µM
- TGI (SK-OV-3 ovarian): 27.9 µM
- GI50 (SN12C renal): 12.2 µM
- TGI (SN12C renal): 25.9 µM
- GI50 (SNB-19 CNS): 11.7 µM
- TGI (SNB-19 CNS): 25.2 µM
- GI50 (SNB-75 CNS): 15.6 µM
- TGI (SNB-75 CNS): 34.6 µM
- GI50 (SR leukemia): 2 µM
- TGI (SR leukemia): 6.21 µM
- GI50 (SW-620 colon): 1.92 µM
- TGI (SW-620 colon): 4.21 µM
- GI50 (T-47D breast): 12.4 µM
- TGI (T-47D breast): 28.6 µM
- GI50 (TK-10 renal): 13.9 µM
- TGI (TK-10 renal): 27.1 µM
- GI50 (U251 CNS): 3.85 µM
- TGI (U251 CNS): 15.1 µM
- GI50 (UACC-257 melanoma): 10.4 µM
- TGI (UACC-257 melanoma): 22.7 µM
- GI50 (UACC-62 melanoma): 5.14 µM
- TGI (UACC-62 melanoma): 19.2 µM
- GI50 (UO-31 renal): 11.4 µM
- TGI (UO-31 renal): 25.5 µM

Source: PubChem BioAssay (NCI)
